# According to patent publication US20090143279A1 (priority 2007, published 2009):
# Like-named read-outs stand apart in the source and are kept apart here.
# How the values were obtained:
# reactive oxygen species = format: cell-based, mouse; conditions: for ROS (composite Z-score): normalized score vs mock-treated (DMSO) wells
# [1] = tested on: cellular dehydrogenase activity; conditions: for MTT (composite Z-score): normalized score vs mock-treated (DMSO) wells
# cytochrome c = format: cell-based, mouse; conditions: for cyt c (composite Z-score): normalized score vs mock-treated (DMSO) wells
# nuOXPHOS transcripts = format: cell-based, mouse; conditions: for nucOX (composite Z-score): normalized score vs mock-treated (DMSO) wells
# OXPHOS gene expression = format: cell-based, mouse; conditions: for GE-HTS (composite Z-score): normalized score vs mock-treated (DMSO) wells
# C2C12 myotubes = conditions: for Viability (composite Z-score): normalized score vs mock-treated (DMSO) wells
# [2] = tested on: mitochondrial membrane potential; format: cell-based, mouse; conditions: for ΔΨm (composite Z-score): normalized score vs mock-treated (DMSO) wells
# mtOXPHOS transcripts = format: cell-based, mouse; conditions: for mitoOX (composite Z-score): normalized score vs mock-treated (DMSO) wells
# [3] = normalized composite Z-score vs mock-treated (DMSO) wells, Conc 20 μM
# [4] = composite Z-score vs DMSO, Conc 20 μM
# [5] = composite Z-score vs mock-treated (DMSO) wells, Conc 20 μM
# [6] = composite Z-score vs mock-treated (DMSO) wells, concentration of each compound in μM
# [7] = 20 μM, composite Z-score vs DMSO
# [8] = composite Z-score vs DMSO wells, Conc 20 μM
# [9] = Table 4, C2C12 myotubes, 48 h, composite Z-score
# Sequence of cytochrome c (P62897 whole entry): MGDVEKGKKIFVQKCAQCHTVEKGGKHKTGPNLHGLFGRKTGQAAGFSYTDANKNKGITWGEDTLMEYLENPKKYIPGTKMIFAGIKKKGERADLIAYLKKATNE
compound,measurement,setting,value
COC(=O)c1c(OC)cc2c(c1C)Oc1c(Cl)c(O)c(Cl)c(C)c1C(=O)O2 [gangaleoidin],ROS,reactive oxygen species; [3],1.356
same,MTT,[1]; [3],−1.213
same,cyt c,cytochrome c; [3],−0.876
same,nucOX,nuOXPHOS transcripts; [3],−0.587
same,GE-HTS,OXPHOS gene expression; [3],−0.512
same,Viability,C2C12 myotubes; [3],0.889
same,ΔΨm,[2]; [3],−1.233
same,mitoOX,mtOXPHOS transcripts; [3],−0.310
O=c1c(-c2cc(O)c(O)c(O)c2)coc2cc(O)c(O)c(O)c12 [irigenol],ROS,reactive oxygen species; [4],−1.001
same,MTT,[1]; [4],−0.810
same,cyt c,cytochrome c; [4],0.410
same,nucOX,nuOXPHOS transcripts; [4],−0.838
same,GE-HTS,OXPHOS gene expression; [4],−1.274
same,Viability,C2C12 myotubes; [4],0.249
same,ΔΨm,[2]; [4],−0.374
same,mitoOX,mtOXPHOS transcripts; [4],−1.938
CC(C)=CCc1c(O)cc(C)oc1=O [2-isoprenyl-3-hydroxy-5-methyl-a-pyrone],ROS,reactive oxygen species; [5],1.032
same,MTT,[1]; [5],0.055
same,cyt c,cytochrome c; [5],−0.568
same,nucOX,nuOXPHOS transcripts; [5],0.277
same,GE-HTS,OXPHOS gene expression; [5],0.309
same,Viability,C2C12 myotubes; [5],−1.025
same,ΔΨm,[2]; [5],−0.641
same,mitoOX,mtOXPHOS transcripts; [5],0.271
CC(=O)Oc1cc2c(c(C)c1OC(C)=O)CC=C1[C@@]2(C)CC[C@@]2(C)C3C[C@](C)(C(=O)O)CC[C@]3(C)CC[C@]12C (stereo partly drawn) [dihydrocelastryl diacetate],ROS (composite Z-score),reactive oxygen species; Conc 20 μM,−3.182
same,MTT (composite Z-score),[1]; Conc 20 μM,−4.098
same,cyt c (composite Z-score),cytochrome c; Conc 20 μM,−5.617
same,nucOX (composite Z-score),nuOXPHOS transcripts; Conc 20 μM,0.241
same,GE-HTS (composite Z-score),OXPHOS gene expression; Conc 20 μM,−1.199
same,Viability (composite Z-score),C2C12 myotubes; Conc 20 μM,−4.472
same,ΔΨm (composite Z-score),[2]; Conc 20 μM,−3.309
same,mitoOX (composite Z-score),mtOXPHOS transcripts; Conc 20 μM,−3.815
CC(=O)O[C@@H]1C[C@H]2C(C)(C)C(=O)C=C[C@]2(C)[C@H]2CC[C@]3(C)C(=CC(=O)O[C@H]3c3ccoc3)[C@@]21C [deoxygedunin],ROS,reactive oxygen species; [4],−0.640
same,MTT,[1]; [4],−0.532
same,cyt c,cytochrome c; [4],1.083
same,nucOX,nuOXPHOS transcripts; [4],−1.298
same,GE-HTS,OXPHOS gene expression; [4],−1.229
same,Viability,C2C12 myotubes; [4],−0.326
same,ΔΨm,[2]; [4],1.327
same,mitoOX,mtOXPHOS transcripts; [4],−0.808
CN1Cc2c(ccc3c2OCO3)[C@@H]2[C@H]1c1cc3c(cc1C[C@@H]2O)OCO3 [(+)-chelidonine],ROS,reactive oxygen species; [6],−1.486
same,MTT,[1]; [6],−1.988
same,cyt c,cytochrome c; [6],−1.144
same,nucOX,nuOXPHOS transcripts; [6],0.901
same,GE-HTS,OXPHOS gene expression; [6],0.941
same,Viability,C2C12 myotubes; [6],−1.005
same,ΔΨm,[2]; [6],−1.123
same,mitoOX,mtOXPHOS transcripts; [6],0.836
COc1cc(/C=C/CO)ccc1O [coniferyl alcohol],ROS (composite Z-score),reactive oxygen species; Conc 20 μM,−0.450
same,MTT (composite Z-score),[1]; Conc 20 μM,−1.094
same,cyt c (composite Z-score),cytochrome c; Conc 20 μM,0.296
same,nucOX (composite Z-score),nuOXPHOS transcripts; Conc 20 μM,−0.688
same,GE-HTS (composite Z-score),OXPHOS gene expression; Conc 20 μM,−0.593
same,Viability (composite Z-score),C2C12 myotubes; Conc 20 μM,−0.771
same,ΔΨm (composite Z-score),[2]; Conc 20 μM,−0.719
same,mitoOX (composite Z-score),mtOXPHOS transcripts; Conc 20 μM,−0.251
CC(=O)O[C@H]1CC[C@]2(C)[C@H]3C(=O)C=C4[C@@H]5[C@@H](C)[C@H](C)CC[C@]5(C(=O)O)CC[C@@]4(C)[C@]3(C)CC[C@H]2C1(C)C [11-oxoursolic acid acetate],ROS,reactive oxygen species; [3],0.280
same,MTT,[1]; [3],−1.214
same,cyt c,cytochrome c; [3],−1.393
same,nucOX,nuOXPHOS transcripts; [3],−0.304
same,GE-HTS,OXPHOS gene expression; [3],−0.240
same,Viability,C2C12 myotubes; [3],1.094
same,ΔΨm,[2]; [3],−0.524
same,mitoOX,mtOXPHOS transcripts; [3],−0.027
CC1=CC(=O)C2=C(C)CC[C@@H]3[C@H](OC(=O)[C@H]3C)[C@@H]12 [leucodin],ROS (composite Z-score),reactive oxygen species; Conc 20 μM,0.695
same,MTT (composite Z-score),[1]; Conc 20 μM,−1.134
same,cyt c (composite Z-score),cytochrome c; Conc 20 μM,−0.301
same,nucOX (composite Z-score),nuOXPHOS transcripts; Conc 20 μM,−0.270
same,GE-HTS (composite Z-score),OXPHOS gene expression; Conc 20 μM,−0.300
same,Viability (composite Z-score),C2C12 myotubes; Conc 20 μM,−0.525
same,ΔΨm (composite Z-score),[2]; Conc 20 μM,−0.355
same,mitoOX (composite Z-score),mtOXPHOS transcripts; Conc 20 μM,−0.261
Nc1ccc(C(=O)[O-])cc1.[K+] [potassium p-aminobenzoate],ROS,reactive oxygen species; [7],0.818
same,MTT,[1]; [7],−1.445
same,cyt c,cytochrome c; [7],0.519
same,nucOX,nuOXPHOS transcripts; [7],−1.085
same,GE-HTS,OXPHOS gene expression; [7],−1.001
same,Viability,C2C12 myotubes; [7],−0.277
same,ΔΨm,[2]; [7],−0.826
same,mitoOX,mtOXPHOS transcripts; [7],−0.673
CCOC(=O)[C@H](CCc1ccccc1)N[C@@H](C)C(=O)N1[C@H](C(=O)O)C[C@H]2CCCC[C@@H]21 [trandoapril],ROS,reactive oxygen species; [6],0.572
same,MTT,[1]; [6],−0.684
same,cyt c,cytochrome c; [6],0.687
same,nucOX,nuOXPHOS transcripts; [6],−1.466
same,GE-HTS,OXPHOS gene expression; [6],−1.375
same,Viability,C2C12 myotubes; [6],0.694
same,ΔΨm,[2]; [6],−0.210
same,mitoOX,mtOXPHOS transcripts; [6],−0.884
CC12CCC(O)CC1CCc1ccccc12 (stereo not drawn),ROS (composite Z-score),reactive oxygen species; Conc 20 μM,0.477
same,MTT (composite Z-score),[1]; Conc 20 μM,−0.574
same,cyt c (composite Z-score),cytochrome c; Conc 20 μM,0.790
same,nucOX (composite Z-score),nuOXPHOS transcripts; Conc 20 μM,−0.023
same,GE-HTS (composite Z-score),OXPHOS gene expression; Conc 20 μM,−0.250
same,Viability (composite Z-score),C2C12 myotubes; Conc 20 μM,0.056
same,ΔΨm (composite Z-score),[2]; Conc 20 μM,−0.339
same,mitoOX (composite Z-score),mtOXPHOS transcripts; Conc 20 μM,−0.717
CC(=O)Nc1ccc(OC(=O)c2ccccc2O)cc1 [acetaminosalol],ROS,reactive oxygen species; [8],0.308
same,MTT,[1]; [8],−0.142
same,cyt c,cytochrome c; [8],0.465
same,nucOX,nuOXPHOS transcripts; [8],0.145
same,GE-HTS,OXPHOS gene expression; [8],0.083
same,Viability,C2C12 myotubes; [8],0.144
same,ΔΨm,[2]; [8],−0.707
same,mitoOX,mtOXPHOS transcripts; [8],−0.060
dihydromundulone [reference compound],ROS,reactive oxygen species; [9],0.537
same,ROS,reactive oxygen species; [3],0.537
same,MTT,[1]; [9],0.189
same,MTT,[1]; [3],0.189
same,cyt c,cytochrome c; [3],−0.210
same,nucOX,nuOXPHOS transcripts; [3],0.513
same,GE-HTS,OXPHOS gene expression; [3],0.414
same,Viability,C2C12 myotubes; [9],0.816
same,Viability,C2C12 myotubes; [3],0.816
same,ΔΨm,"[2]; Table 4, C2C12 myotubes, 48 h, JC-1, composite Z-score",−0.530
same,ΔΨm,[2]; [3],−0.530
same,mitoOX,mtOXPHOS transcripts; [3],0.168
O=C(O)/C=C/C=C/c1ccccc1 [juarezic acid],ROS,reactive oxygen species; [4],0.345
same,MTT,[1]; [4],−0.449
same,cyt c,cytochrome c; [4],−0.113
same,nucOX,nuOXPHOS transcripts; [4],0.108
same,GE-HTS,OXPHOS gene expression; [4],−0.147
same,Viability,C2C12 myotubes; [4],−0.106
same,ΔΨm,[2]; [4],−0.821
same,mitoOX,mtOXPHOS transcripts; [4],−0.650
COC(=O)C[C@H]1C2(C)CC34OC5(C)O[C@@]6([C@H](OC)C(OC(=O)C(C)C)[C@]7(C)C(/C(=C(/OC)C(C)C)C(=O)O[C@H]7c7ccoc7)[C@@]6(O5)[C@H](OC)[C@@]3(OC)C2OC(C)=O)[C@]14C (stereo partly drawn) [chukrasin methyl ether],ROS,reactive oxygen species; [5],0.777
same,MTT,[1]; [5],−0.818
same,cyt c,cytochrome c; [5],−0.248
same,nucOX,nuOXPHOS transcripts; [5],0.417
same,GE-HTS,OXPHOS gene expression; [5],0.352
same,Viability,C2C12 myotubes; [5],−0.822
same,ΔΨm,[2]; [5],−1.084
same,mitoOX,mtOXPHOS transcripts; [5],0.198
phytol,ROS,reactive oxygen species; [3],0.940
same,MTT,[1]; [3],−0.544
same,cyt c,cytochrome c; [3],0.020
same,nucOX,nuOXPHOS transcripts; [3],−0.098
same,GE-HTS,OXPHOS gene expression; [3],−0.177
same,Viability,C2C12 myotubes; [3],−0.520
same,ΔΨm,[2]; [3],−0.233
same,mitoOX,mtOXPHOS transcripts; [3],−0.270
"C[C@@H]1C(=O)O[C@H]2[C@H]1CC[C@@]1(C)C=CC(=O)[C@@]3(C)O[C@@]213 [epoxy (4,5alpha)-4,5-dihydrosantonin]",ROS,reactive oxygen species; [5],−1.367
same,MTT,[1]; [5],0.041
same,cyt c,cytochrome c; [5],0.552
same,nucOX,nuOXPHOS transcripts; [5],−0.614
same,GE-HTS,OXPHOS gene expression; [5],−0.736
same,Viability,C2C12 myotubes; [5],0.133
same,ΔΨm,[2]; [5],0.199
same,mitoOX,mtOXPHOS transcripts; [5],−0.901
C[C@]12CCC(=O)C=C1CCc1ccc(O)cc12,ROS,reactive oxygen species; [5],0.676
same,MTT,[1]; [5],−0.984
same,cyt c,cytochrome c; [5],−0.516
same,nucOX,nuOXPHOS transcripts; [5],−0.281
same,GE-HTS,OXPHOS gene expression; [5],0.075
same,Viability,C2C12 myotubes; [5],−0.592
same,ΔΨm,[2]; [5],−0.484
same,mitoOX,mtOXPHOS transcripts; [5],0.846
